Reference: patent US6737383B1, “Herbicidal oxadiazolidines” (priority 1999, dated 2004)

How the values were obtained:
maize hybrid P33G26 = assay: Test G maize injury with safener-treated seed; conditions: absence of any safener; rates ranging from 140 to 1120 g/ha
Procedure: In soil-containing pots were planted seeds of maize hybrid P33G26 that was previously treated with dichlomid, fenchlorazole-ethyl, and naphthalic anhydride (or no safener). The soil surface was then treated with several rates of Compound 131 or Compound 146 dissolved in a non-phytotoxic solvent using a flat-fan sprayer calibrated to deliver 310 L/ha. Treatmemtes were replicated 4 or 5 times. The treated and untreated plants were allowed to grow in a greenhouse using supplementary artificial lighting with a day-length of 14 hours, with the temperature maintained at about 27° C. during the day and 24° C. during the night. Plants were kept watered with a dilute balanced fertilizer solution.
At 28 days after application, the treated plants were compared with untreated controls and vissually evaluated.

sourgrass = assay: Test D sourgrass; assay type: in vivo, Trichachne insularis; conditions: Preemergence, 0 to 100 scale
Method in brief: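 Scoring used a 0–100 visual injury scale, with 0 meaning no effect and 100 complete control, assessed 14–21 days after application alongside untreated pots. Preemergence treatments went onto sandy loam surfaces of separately potted seeds within a day of sowing.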

fall panicum = assay: Test C postemergence fall panicum; assay type: in vivo, Panicum dichotomiflorum; conditions: 0 to 100 scale, 0 no effect, 100 complete control
Method in brief: (§1)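 Visual ratings on a 0 to 100 scale, where 0 means no effect and 100 complete control, were made versus untreated controls roughly 14 to 21 days after postemergence treatment. Test compounds were formulated in a non-phytotoxic solvent mixture containing a surfactant.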

cocklebur = assay: Test C postemergence cocklebur; assay type: in vivo, Xanthium strumarium; conditions: 0 to 100 scale, 0 no effect, 100 complete control
Procedure: (§2) Compounds evaluated in this test were formulated in a non-phytotoxic solvent mixture which included a surfactant and applied to plants that were grown for various periods of time before treatment (postemergence application). A mixture of sandy loam soil and greenhouse potting mix in a 60:40 ratio was used for the postemergence test.
(§3) Plantings of these crops and weed species were adjusted to produce plants of appropriate size for the postemergence test. All plant species were grown using normal greenhouse practices. Crop and weed species include arrowleaf sida (Sida rhombifolia), barnyardgrass (Echinochloa crus-galli), cocklebur (Xanthium strumarium), common ragweed (Ambrosia elatior), corn (Zea mays), cotton (Gossypium hirsutum), eastern black nightshade (Solanum ptycanthum), fall panicum (Panicum dichotomiflorum), field bindweed (Convolvulus arvensis), giant foxtail (Setaria faberii), hairy beggarticks (Bidens pilosa), ivyleaf morningglory (Ipomoea hederacea), johnsongrass (Sorghum halepense), ladysthumb smartweed (Polygonum persicaria), lambsquarters (Chenopodium album), large crabgrass (Digitaria sanguinalis), purple nutsedge (Cyperus rotundus), redroot pigweed (Amaranthus retroflexus), soybean (Glycine max), surinam grass (Brachiaria decumbens), velvetleaf (Abutilon theophrasti) and wild poinsettia (Euphorbia heterophylla).
(§4) Treated plants and untreated controls were maintained in a greenhouse for approximately 14, to 21 days, after which all treated plants were compared to untreated controls and visually evaluated. Plant response ratings, summarized in Table C, were based upon a 0 to 100 scale where 0 was no effect and 100 was complete control. A dash response (−) means no test result.

johnsongrass = assay: Test C postemergence johnsongrass; assay type: in vivo, Sorghum halepense; conditions: 0 to 100 scale, 0 no effect, 100 complete control
Procedure: as §2, §3, §4

wild poinsettia = assay: Test C postemergence wild poinsettia; assay type: in vivo, Euphorbia heterophylla; conditions: 0 to 100 scale, 0 no effect, 100 complete control
Procedure: as §2, §3, §4

arrowleaf sida = assay: Test C postemergence arrowleaf sida; assay type: in vivo, Sida rhombifolia; conditions: 0 to 100 scale, 0 no effect, 100 complete control
Method in brief: as §1

Setaria faberii (SETFA) = assay: Test F preemergence, alone and in mixture with rimsulfuron, SETFA; assay type: in vivo; conditions: 21 days after treatment, 0-100 scale
Procedure: (§5) Abutilon theophrasti (ABUTH), Chenopodium album (CHEAL), Amaranthus rudis (AMATA), Setaria faberii (SETFA), Panicum dichotomiflorum (PANDI), and Digitaria sanguinalis (DIGSA) were grown from seed in pots of an artificial potting mixture in a greenhouse. Compounds of the present invention were applied at 70 and 105 g ai/ha preemergence. Rimsulfuron was applied at 8.8 and 17.5 g ai/ha. Mixtures of the compounds of the present invention and rimsulfuron were also applied.
(§6) Following application, the plants were maintained by watering as needed. A fertilizer solution of Peter's 20-20-20 (10 pounds/5 gallons of water) plus Sprint 330, a Iron Chelate micronutrient, (113.5 grams/5 gallons of water) was injected into the water with an Anderson fertilizer injection system to provide approximately 219 ppm of nitrogen with each watering. Artificial lighting was used to supplement natural light to produce a 14 hour photoperiod and: an additional one hour light period was used between 1:00 am to 2:00 am for a night interruption. Greenhouse temperatures were targeted for 27° C. in the day and 21° C. at night. At 21 days after treatment, all plants were evaluated for injury as compared to control plants that were sprayed only with non-phytotoxic solvent.
(§7) Colby's equation was used to calculate the expected additive herbicidal effect of the mixtures of Compound 21 and the mixture partners listed above. […]

large crabgrass = assay: Test C postemergence large crabgrass; assay type: in vivo, Digitaria sanguinalis; conditions: 0 to 100 scale, 0 no effect, 100 complete control
Procedure: as §2, §3, §4

[1] = test system: Abutilon theophrasti (ABUTH); assay: Test F preemergence, alone and in mixture with rimsulfuron, ABUTH; assay type: in vivo; conditions: 21 days after treatment, 0-100 scale
Procedure: as §5, §6, §7

velvetleaf = assay: Test C postemergence velvetleaf; assay type: in vivo, Abutilon theophrasti; conditions: 0 to 100 scale, 0 no effect, 100 complete control
Method in brief: as §1

ladysthumb smartweed = assay: Test C postemergence ladysthumb smartweed; assay type: in vivo, Polygonum persicaria; conditions: 0 to 100 scale, 0 no effect, 100 complete control
Procedure: as §2, §3, §4

soybean = assay: Test C postemergence soybean; assay type: in vivo, Glycine max; conditions: 0 to 100 scale, 0 no effect, 100 complete control
Procedure: as §2, §3, §4

[2] = Rate 64 g/ha, 0 no injury, 100 complete control
[3] = Alone: Cmpd. rate 70, Rimsulfuron 0
[4] = Alone: Cmpd. rate 105, Rimsulfuron 0

**Q.** Which Injury to maize (maize hybrid P33G26) does the source give for CC(C)N(C(=O)n1oc(=O)n(-c2ccccc2OC(F)(F)F)c1=O)c1ccc(F)cc1 [Compound 14] here?
**A.** severely injurious to maize

**Q.** For Cc1ccc(-n2c(=O)on(C(=O)N(c3ccc(F)cc3F)C(C)C)c2=O)c(C)c1 [Compound 24], which “Plant response rating, Sourgrass” value (sourgrass; Rate 32 g/ha, 0 no injury, 100 complete control) is on record?
**A.** 40

**Q.** And the “Plant response rating, Sourgrass” value (sourgrass; [2])?
**A.** 85

**Q.** What about the “Sourgrass plant response rating” value (sourgrass; [2]) of the same compound?
**A.** 100

**Q.** What about the “Sourgrass plant response rating” value (sourgrass; Rate 125 g/ha, 0 no injury, 100 complete control) of the same compound?
**A.** 100

**Q.** What about the “Plant response rating, Sourgrass” value (sourgrass; Rate 250 g/ha) of the same compound?
**A.** 100

**Q.** What about the “Plant response rating, Sourgrass” value (sourgrass; Rate 500 g/ha) of the same compound?
**A.** 100

**Q.** Which results are given for CC(C)N(C(=O)n1oc(=O)n(C(C)C)c1=O)c1ccccc1 [Compound 113]?
**A.** Plant response rating Fall panicum (fall panicum; Rate 140 g/ha): 60; Plant response rating Fall panicum (fall panicum; Rate 280 g/ha): 80; Plant response rating Fall panicum (fall panicum; Rate 560 g/ha): 85; Plant response rating Fall panicum (fall panicum; Rate 1120 g/ha): 85; Plant response rating, Cocklebur (cocklebur; Rate 140 g/ha): 5; Plant response rating, Cocklebur (cocklebur; Rate 280 g/ha): 50; Plant response rating, Cocklebur (cocklebur; Rate 560 g/ha): 50; Plant response rating, Cocklebur (cocklebur; Rate 1120 g/ha): 50; Plant response rating, Johnsongrass (johnsongrass; Rate 140 g/ha): 0; Plant response rating, Johnsongrass (johnsongrass; Rate 280 g/ha): 20; Plant response rating, Johnsongrass (johnsongrass; Rate 560 g/ha): 60; Plant response rating, Johnsongrass (johnsongrass; Rate 1120 g/ha): 95; Plant response rating Wild poinsettia (wild poinsettia; Rate 140 g/ha): 10; Plant response rating Wild poinsettia (wild poinsettia; Rate 280 g/ha): 50; Plant response rating Wild poinsettia (wild poinsettia; Rate 560 g/ha): 80; Plant response rating Wild poinsettia (wild poinsettia; Rate 1120 g/ha): 95; Plant response rating Arrowleaf sida (arrowleaf sida; Rate 140 g/ha): 30; Plant response rating Arrowleaf sida (arrowleaf sida; Rate 280 g/ha): 40; Plant response rating Arrowleaf sida (arrowleaf sida; Rate 560 g/ha): 70; Plant response rating Arrowleaf sida (arrowleaf sida; Rate 1120 g/ha): 95; SETFA Observed (Setaria faberii (SETFA); [3]): 60%; SETFA Observed (Setaria faberii (SETFA); [4]): 65%; Plant response rating, Large crabgrass (large crabgrass; Rate 140 g/ha): 0; Plant response rating, Large crabgrass (large crabgrass; Rate 280 g/ha): 85; Plant response rating, Large crabgrass (large crabgrass; Rate 560 g/ha): 95; Plant response rating, Large crabgrass (large crabgrass; Rate 1120 g/ha): 95; ABUTH Observed [1, 3]: 45%; ABUTH Observed [1, 4]: 65%; Plant response rating, Velvetleaf (velvetleaf; Rate 140 g/ha): 0; Plant response rating, Velvetleaf (velvetleaf; Rate 280 g/ha): 0; Plant response rating, Velvetleaf (velvetleaf; Rate 560 g/ha): 60; Plant response rating, Velvetleaf (velvetleaf; Rate 1120 g/ha): 75; Plant response rating Ladysthumb (ladysthumb smartweed; Rate 140 g/ha): 0; Plant response rating Ladysthumb (ladysthumb smartweed; Rate 280 g/ha): 0; Plant response rating Ladysthumb (ladysthumb smartweed; Rate 560 g/ha): 85; Plant response rating Ladysthumb (ladysthumb smartweed; Rate 1120 g/ha): 85; Plant response rating, Soybean (soybean; Rate 140 g/ha): 40; Plant response rating, Soybean (soybean; Rate 280 g/ha): 70; Plant response rating, Soybean (soybean; Rate 560 g/ha): 85; Plant response rating, Soybean (soybean; Rate 1120 g/ha): 85
